Source: publication PMC3076215 (Biochemistry, 2011)

Target: T1, Carbon monoxide dehydrogenase (CODH) (Afipia carboxidovorans, UniProt P19920)
T1 sequence (P19920 1-288): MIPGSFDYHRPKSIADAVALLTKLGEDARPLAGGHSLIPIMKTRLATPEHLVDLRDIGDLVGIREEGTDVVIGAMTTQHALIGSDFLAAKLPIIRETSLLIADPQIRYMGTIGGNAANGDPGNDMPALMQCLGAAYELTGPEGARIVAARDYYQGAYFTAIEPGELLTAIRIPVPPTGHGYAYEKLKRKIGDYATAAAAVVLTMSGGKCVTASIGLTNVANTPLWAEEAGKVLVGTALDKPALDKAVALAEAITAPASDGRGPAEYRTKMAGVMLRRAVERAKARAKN
T1 sequence (P19919 1-809 partner): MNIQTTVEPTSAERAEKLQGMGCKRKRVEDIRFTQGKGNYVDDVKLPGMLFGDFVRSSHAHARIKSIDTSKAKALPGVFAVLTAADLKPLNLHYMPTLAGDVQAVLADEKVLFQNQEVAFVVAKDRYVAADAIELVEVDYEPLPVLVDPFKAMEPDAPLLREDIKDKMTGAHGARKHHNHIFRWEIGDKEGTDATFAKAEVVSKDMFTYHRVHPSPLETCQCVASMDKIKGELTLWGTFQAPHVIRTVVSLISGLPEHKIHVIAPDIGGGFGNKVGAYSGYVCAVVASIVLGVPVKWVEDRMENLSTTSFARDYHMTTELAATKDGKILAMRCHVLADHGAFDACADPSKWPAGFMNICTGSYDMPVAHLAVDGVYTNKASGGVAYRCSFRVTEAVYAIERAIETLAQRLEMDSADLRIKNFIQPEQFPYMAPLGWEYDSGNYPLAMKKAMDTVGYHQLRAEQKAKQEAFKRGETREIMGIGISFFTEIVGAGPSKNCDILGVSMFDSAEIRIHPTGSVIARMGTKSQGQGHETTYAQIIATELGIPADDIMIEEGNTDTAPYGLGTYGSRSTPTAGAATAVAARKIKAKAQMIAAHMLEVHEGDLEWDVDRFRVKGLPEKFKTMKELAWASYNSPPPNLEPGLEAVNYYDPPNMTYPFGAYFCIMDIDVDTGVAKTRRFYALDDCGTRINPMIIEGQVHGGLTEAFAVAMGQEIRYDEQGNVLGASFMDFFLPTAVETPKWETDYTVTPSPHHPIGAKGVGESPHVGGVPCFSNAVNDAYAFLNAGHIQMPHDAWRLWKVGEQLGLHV
T1 sequence (P19921 1-166 partner): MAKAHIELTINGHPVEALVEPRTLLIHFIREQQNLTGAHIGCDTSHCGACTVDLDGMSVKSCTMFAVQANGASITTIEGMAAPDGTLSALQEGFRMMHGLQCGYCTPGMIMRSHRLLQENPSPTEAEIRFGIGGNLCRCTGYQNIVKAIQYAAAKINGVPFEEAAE
Assay: UV-vis difference titration at […] nm
Assay type: binding

O=C1C=CC(=O)C=C1 [1,4-benzoquinone]
Kd: 100 µM
